# Assay results from US20050132448A1, “Assay for beta cell toxic macrolides” (priority 2001, published 2005).
# Test system: C57B1/6J mice
# Assay: Size and number of pancreatic islets after vATPase inhibitors
# Assay type: in vivo
# Conditions: for No. islets per mm^2 pancreas section / Median size: day 84, 5 daily doses of 12 ng/g body weight; for effect on islet number and size: i.p. 12 ng/gram body weight; for Median size: insulin-positive islets
# Procedure: The effect of vATPase inhibitors on the size and number of pancreatic islets was analysed in C57B1/6J using either bafilomycin A1 (BA1) or concanamycin A (CMA). The effect of Streptozotocin, an islet beta-cell specific toxin produced by Streptomyces achromogenes was also examined, to enable comparison with the effect of vATPase inhibitors.
# Groups of 4 female C57B1/6J mice were injected with 5 doses on 5 consecutive days of 12 ng/g body weight BA1, CMA or the well characterised islet β-cell toxin streptozotocin. Pancreases were removed on day 84 and 3 formalin-fixed sections per mouse were immunostained for insulin. The area of insulin-positive islets was measured on digital images using MCID software.
SMILES,No. islets per mm^2 pancreas section [per mm^2 pancreas section],effect on islet number and size,Median size [μm^2]
CN(N=O)C(=O)N[C@H]1C(O)O[C@H](CO)[C@@H](O)[C@@H]1O (mixture of isomers) [Streptozotocin],0.46,reduces the number of islets but does not induce the formation of new islets,5890
"C/C=C/[C@H]1O[C@@](O)([C@@H](C)[C@H](O)[C@H](C)[C@H]2OC(=O)/C(OC)=C/C(C)=C/[C@@H](C)[C@@H](O)[C@@H](CC)[C@@H](O)[C@H](C)C/C(C)=C/C=C/[C@@H]2OC)C[C@@H](O[C@H]2C[C@@H](O)[C@H](OC(N)=O)[C@@H](C)O2)[C@@H]1C [CMA, concanamycin A]",0.78,increased the number of small islets,3170
